Tests used:
[1] = biological target: T1, Full length human recombinant HDAC6 (Homo sapiens, UniProt Q9UBN7); test: In vitro histone deacetylase assay, enzymatic HDAC6 (electrophoretic mobility shift assay); assay type: biochemical; conditions: 1 nM HDAC6; 2 μM peptide substrate FAM-RHKK(Ac)—NH2; 25° C.; 12 concentrations; read-out: HDAC6 Activity Range (IC50)
T1 construct: Full length human recombinant HDAC6 and HDAC11 proteins were expressed in baculoviral system
T1 sequence (Q9UBN7 1-1215): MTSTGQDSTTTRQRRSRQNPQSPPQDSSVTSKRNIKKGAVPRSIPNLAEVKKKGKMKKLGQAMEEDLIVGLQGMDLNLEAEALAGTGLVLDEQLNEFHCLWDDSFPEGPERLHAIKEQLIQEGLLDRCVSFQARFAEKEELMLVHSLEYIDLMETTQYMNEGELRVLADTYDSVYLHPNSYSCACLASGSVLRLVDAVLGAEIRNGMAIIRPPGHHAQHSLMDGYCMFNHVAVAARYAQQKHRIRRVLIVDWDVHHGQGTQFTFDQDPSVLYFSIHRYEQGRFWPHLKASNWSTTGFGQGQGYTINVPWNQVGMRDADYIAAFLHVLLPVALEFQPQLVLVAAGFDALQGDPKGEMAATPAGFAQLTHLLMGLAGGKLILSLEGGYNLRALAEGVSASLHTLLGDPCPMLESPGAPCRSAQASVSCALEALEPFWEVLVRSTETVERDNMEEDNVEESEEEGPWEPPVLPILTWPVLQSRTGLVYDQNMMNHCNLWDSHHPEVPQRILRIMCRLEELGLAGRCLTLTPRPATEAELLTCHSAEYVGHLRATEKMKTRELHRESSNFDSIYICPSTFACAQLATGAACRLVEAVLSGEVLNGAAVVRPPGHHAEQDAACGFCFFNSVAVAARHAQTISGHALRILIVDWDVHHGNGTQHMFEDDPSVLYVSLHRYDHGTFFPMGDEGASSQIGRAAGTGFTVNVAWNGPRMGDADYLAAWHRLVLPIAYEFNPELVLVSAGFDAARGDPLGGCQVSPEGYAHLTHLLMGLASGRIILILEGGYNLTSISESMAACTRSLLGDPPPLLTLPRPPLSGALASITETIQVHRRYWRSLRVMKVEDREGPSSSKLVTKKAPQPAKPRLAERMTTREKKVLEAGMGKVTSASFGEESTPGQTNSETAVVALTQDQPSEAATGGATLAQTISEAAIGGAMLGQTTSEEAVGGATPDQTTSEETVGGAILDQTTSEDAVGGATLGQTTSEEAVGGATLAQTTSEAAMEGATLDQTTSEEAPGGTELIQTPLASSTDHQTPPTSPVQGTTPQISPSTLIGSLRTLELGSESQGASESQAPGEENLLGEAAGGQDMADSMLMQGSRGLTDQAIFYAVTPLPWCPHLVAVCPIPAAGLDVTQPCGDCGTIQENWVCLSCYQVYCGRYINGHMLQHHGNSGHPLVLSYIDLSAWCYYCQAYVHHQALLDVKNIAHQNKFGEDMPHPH
Outline: (§1)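 Baculovirus-expressed full-length enzymes (HDAC6 1 nM, FAM-RHKK(Ac)-NH2; HDAC11 10 nM, FAM-RHKK(tri-fluor-Ac)-NH2), 2 μM substrate, HEPES pH 7.5, 25°C, 12-point 3× dilutions. Product/substrate separated by microfluidic mobility shift after SDS quench; IC50 from 4-parameter fit, reported as +/++/+++ bins.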

[2] = biological target: T2, Full length human recombinant HDAC11 (Homo sapiens, UniProt Q96DB2); test: In vitro histone deacetylase assay, enzymatic HDAC11 (electrophoretic mobility shift assay); assay type: biochemical; conditions: 10 nM HDAC11; 2 μM peptide substrate FAM-RHKK(tri-fluor-Ac)—NH2; 25° C.; 12 concentrations; read-out: HDAC11 Activity Range (IC50)
T2 construct: Full length human recombinant HDAC6 and HDAC11 proteins were expressed in baculoviral system
T2 sequence (Q96DB2 1-347): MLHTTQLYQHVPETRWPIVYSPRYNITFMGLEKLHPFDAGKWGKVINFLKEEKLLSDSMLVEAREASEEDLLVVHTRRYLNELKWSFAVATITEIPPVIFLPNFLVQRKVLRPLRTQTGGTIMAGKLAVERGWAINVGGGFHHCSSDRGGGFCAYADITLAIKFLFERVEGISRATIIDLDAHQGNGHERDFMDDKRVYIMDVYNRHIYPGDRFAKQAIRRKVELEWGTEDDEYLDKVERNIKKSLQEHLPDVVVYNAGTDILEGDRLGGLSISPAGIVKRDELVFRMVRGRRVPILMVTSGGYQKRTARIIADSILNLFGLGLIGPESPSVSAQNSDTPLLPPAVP
Outline: as §1

COCCN1CC[C@@]2(CCc3ccc(C(=O)NO)cc3C2)C1=O [Compound I-56, (S)—N-hydroxy-1′-(2-methoxyethyl)-2′-oxo-3,4-dihydro-1H-spiro[naphthalene-2,3′-pyrrolidine]-7-carboxamide]
IC50 [1]: ≤ 100 nM
IC50 [2]: > 500 nM

O=C(NO)c1ccc2c(c1)C[C@@]1(CC2)CCN(CC2CCOCC2)C1=O [Compound I-57, (S)—N-hydroxy-2′-oxo-1′-((tetrahydro-2H-pyran-4-yl)methyl)-3,4-dihydro-1H-spiro[naphthalene-2,3′-pyrrolidine]-7-carboxamide]
IC50 [1]: ≤ 100 nM
IC50 [2]: > 500 nM

O=C(NO)c1ccc2c(c1)C[C@@]1(CC2)CCN(C/C=C/c2ccccc2)C1=O [Compound I-58, (S)-1′-cinnamyl-N-hydroxy-2′-oxo-3,4-dihydro-1H-spiro[naphthalene-2,3′-pyrrolidine]-7-carboxamide]
IC50 [1]: ≤ 100 nM
IC50 [2]: 100 to 500 nM

Cc1ccccc1CN1CC[C@@]2(CCc3ccc(C(=O)NO)cc3C2)C1=O [Compound I-59, (S)—N-hydroxy-1′-(2-methylbenzyl)-2′-oxo-3,4-dihydro-1H-spiro[naphthalene-2,3′-pyrrolidine]-7-carboxamide]
IC50 [1]: ≤ 100 nM
IC50 [2]: > 500 nM

O=C(NO)c1ccc2c(c1)C[C@@]1(CC2)CCN(Cc2ccccc2C(F)(F)F)C1=O [Compound I-60, (S)—N-hydroxy-2′-oxo-1′-(2-(trifluoromethyl)benzyl)-3,4-dihydro-1H-spiro[naphthalene-2,3′-pyrrolidine]-7-carboxamide]
IC50 [1]: ≤ 100 nM
IC50 [2]: > 500 nM

O=C(NO)c1ccc2c(c1)C[C@@]1(CC2)CCN(Cc2ccccc2Cl)C1=O [Compound I-61, (S)-1′-(2-chlorobenzyl)-N-hydroxy-2′-oxo-3,4-dihydro-1H-spiro[naphthalene-2,3′-pyrrolidine]-7-carboxamide]
IC50 [1]: ≤ 100 nM
IC50 [2]: > 500 nM

O=C(NO)c1ccc2c(c1)C[C@@]1(CC2)CCN(Cc2ccccc2OC(F)(F)F)C1=O [Compound I-62, (S)—N-hydroxy-2′-oxo-1′-(2-(trifluoromethoxy)benzyl)-3,4-dihydro-1H-spiro[naphthalene-2,3′-pyrrolidine]-7-carboxamide]
IC50 [1]: 100 to 500 nM
IC50 [2]: > 500 nM

O=C(NO)c1ccc2c(c1)C[C@@]1(CC2)CCN(Cc2ccc3nonc3c2)C1=O [Compound I-63, (S)-1′-(benzo[c][1,2,5]oxadiazol-5-ylmethyl)-N-hydroxy-2′-oxo-3,4-dihydro-1H-spiro[naphthalene-2,3′-pyrrolidine]-7-carboxamide]
IC50 [1]: ≤ 100 nM
IC50 [2]: > 500 nM

O=C(NO)c1ccc2c(c1)C[C@@]1(CC2)CCN(CC(=O)N2CCOCC2)C1=O [Compound I-64, (S)—N-hydroxy-1′-(2-morpholino-2-oxoethyl)-2′-oxo-3,4-dihydro-1H-spiro[naphthalene-2,3′-pyrrolidine]-7-carboxamide]
IC50 [1]: ≤ 100 nM
IC50 [2]: > 500 nM

COc1ccccc1CN1CC[C@@]2(CCc3ccc(C(=O)NO)cc3C2)C1=O [Compound I-65, (S)—N-hydroxy-1′-(2-methoxybenzyl)-2′-oxo-3,4-dihydro-1H-spiro[naphthalene-2,3′-pyrrolidine]-7-carboxamide]
IC50 [1]: ≤ 100 nM
IC50 [2]: > 500 nM

CC(C)n1c(CN2CC[C@@]3(CCc4ccc(C(=O)NO)cc4C3)C2=O)nc2ccccc21 [Compound I-66, (S)—N-hydroxy-1′-((1-isopropyl-1H-benzo[d]imidazol-2-yl)methyl)-2′-oxo-3,4-dihydro-1H-spiro[naphthalene-2,3′-pyrrolidine]-7-carboxamide]
IC50 [1]: ≤ 100 nM
IC50 [2]: > 500 nM

O=C(NO)c1ccc2c(c1)C[C@@]1(CC2)CCN(Cc2cc(Cl)ccc2Cl)C1=O [Compound I-67, (S)-1′-(2,5-dichlorobenzyl)-N-hydroxy-2′-oxo-3,4-dihydro-1H-spiro[naphthalene-2,3′-pyrrolidine]-7-carboxamide]
IC50 [1]: 100 to 500 nM
IC50 [2]: > 500 nM

O=C(NO)c1ccc2c(c1)C[C@@]1(CC2)CCN(Cc2c(Cl)cccc2Cl)C1=O [Compound I-68, (S)-1′-(2,6-dichlorobenzyl)-N-hydroxy-2′-oxo-3,4-dihydro-1H-spiro[naphthalene-2,3′-pyrrolidine]-7-carboxamide]
IC50 [1]: ≤ 100 nM
IC50 [2]: > 500 nM

COc1cccc(CN2CC[C@@]3(CCc4ccc(C(=O)NO)cc4C3)C2=O)c1 [Compound I-69, (S)—N-hydroxy-1′-(3-methoxybenzyl)-2′-oxo-3,4-dihydro-1H-spiro[naphthalene-2,3′-pyrrolidine]-7-carboxamide]
IC50 [1]: ≤ 100 nM
IC50 [2]: > 500 nM

O=C(NO)c1ccc2c(c1)C[C@@]1(CC2)CCN(Cc2cccnc2)C1=O [Compound I-70, (S)—N-hydroxy-2′-oxo-1′-(pyridin-3-ylmethyl)-3,4-dihydro-1H-spiro[naphthalene-2,3′-pyrrolidine]-7-carboxamide]
IC50 [1]: ≤ 100 nM
IC50 [2]: > 500 nM

O=C(NO)c1ccc2c(c1)C[C@@]1(CC2)CCN(Cc2ccccn2)C1=O [Compound I-71, (S)—N-hydroxy-2′-oxo-1′-(pyridin-2-ylmethyl)-3,4-dihydro-1H-spiro[naphthalene-2,3′-pyrrolidine]-7-carboxamide]
IC50 [1]: ≤ 100 nM
IC50 [2]: > 500 nM

O=C(NO)c1ccc2c(c1)C[C@@]1(CC2)CCN(Cc2cccc(F)c2)C1=O [Compound I-72, (S)-1′-(3-fluorobenzyl)-N-hydroxy-2′-oxo-3,4-dihydro-1H-spiro[naphthalene-2,3′-pyrrolidine]-7-carboxamide]
IC50 [1]: ≤ 100 nM
IC50 [2]: > 500 nM

O=C(NO)c1ccc2c(c1)C[C@@]1(CC2)CCN(Cc2ccc(OC(F)(F)F)cc2)C1=O [Compound I-73, (S)—N-hydroxy-2′-oxo-1′-(4-(trifluoromethoxy)benzyl)-3,4-dihydro-1H-spiro[naphthalene-2,3′-pyrrolidine]-7-carboxamide]
IC50 [1]: ≤ 100 nM
IC50 [2]: > 500 nM

O=C(NO)c1ccc2c(c1)C[C@@]1(CC2)CCN(Cc2cccc(Cl)c2)C1=O [Compound I-74, (S)-1′-(3-chlorobenzyl)-N-hydroxy-2′-oxo-3,4-dihydro-1H-spiro[naphthalene-2,3′-pyrrolidine]-7-carboxamide]
IC50 [1]: ≤ 100 nM
IC50 [2]: > 500 nM

COc1ccc(CN2CC[C@@]3(CCc4ccc(C(=O)NO)cc4C3)C2=O)cc1 [Compound I-75, (S)—N-hydroxy-1′-(4-methoxybenzyl)-2′-oxo-3,4-dihydro-1H-spiro[naphthalene-2,3′-pyrrolidine]-7-carboxamide]
IC50 [1]: ≤ 100 nM
IC50 [2]: > 500 nM

O=C(NO)c1ccc2c(c1)C[C@@]1(CC2)CCN(Cc2ccccc2F)C1=O [Compound I-76, (S)-1′-(2-fluorobenzyl)-N-hydroxy-2′-oxo-3,4-dihydro-1H-spiro[naphthalene-2,3′-pyrrolidine]-7-carboxamide]
IC50 [1]: ≤ 100 nM
IC50 [2]: > 500 nM

O=C(NO)c1ccc2c(c1)C[C@@]1(CC2)CCN(Cc2ccc3ccccc3c2)C1=O [Compound I-77, (S)—N-hydroxy-1′-(naphthalen-2-ylmethyl)-2′-oxo-3,4-dihydro-1H-spiro[naphthalene-2,3′-pyrrolidine]-7-carboxamide]
IC50 [1]: ≤ 100 nM
IC50 [2]: 100 to 500 nM
